For experiment [1], the target named is T1, recombinant MaltOBP1 (Monochamus alternatus, UniProt A6YIT8). The experiment in a line: Competitive ligand-binding assay (1-NPN displacement). To be noted: for binding affinity to MaltOBP1 (in words): fluorescence competitive binding; for Ki: Ki = [IC50]/(1 + [1-NPN]/K1-NPN), read-out: Ki (dissociation constant). The method, then:
(§1) Ligand-binding assays were performed on a HORIBA FluoroMax®-4 Fluorescence spectrophotometer (HORIBA Scientific, United States) with a 1 cm light path quartz cuvette and 5 nm slits for both excitation and emission. The purified MaltOBP1 protein, served in the 1 cm light path quartz cuvette, was titrated with 1 nM 1-N-phenyl naphtylamine (1-NPN, Sigma, Riedstr, Steinheim, Germany) solution in methanol. The fluorescence intensity at the maximum emission wavelength of about 337 nm was linearized using the Scatchard equation ([Sideris et al., 1992]), and then binding affinity for MaltOBP1/1-NPN was calculated.
To assess the binding affinities of ligands to MaltOBP1, a mixture of 1-NPN and MaltOBP1 protein was titrated with 1 μM of each ligand dissolved in methanol. IC50 was obtained by data linearization, and the dissociation constant (Ki) was calculated following the equation: Ki = [IC50]/(1 + [1-NPN]/K1–NPN), where [1-NPN] is the free concentration of 1-NPN and K1–NPN is the dissociation constant of the protein/1-NPN complex ([Campanacci et al., 2001]), which was calculated from the binding curve using GraphPad Prism 5.01 (GraphPad Software, Inc.).

Experiment [2] deals with T1, recombinant MaltOBP1. The experiment is described as follows: 1-NPN fluorescence binding assay (Scatchard). To be noted: fluorescent probe titration, Scatchard linearization; read-out: dissociation constant of MaltOBP1/1-NPN. The method, then:
as §1

[3] abbreviates: competitive displacement of 1-NPN from MaltOBP1, ligands in methanol, read-out: IC50.

Read-outs that look alike come from different tables or passages of the source.

From PMC7138900, “Characterization of MaltOBP1, a Minus-C Odorant-Binding Protein, From the Japanese Pine Sawyer Beetle, Monochamus alternatus Hope (Coleoptera: Cerambycidae)” (Frontiers in Physiology, 2020) come the findings set out here.

T1 sequence (A6YIT8 entry or part of it): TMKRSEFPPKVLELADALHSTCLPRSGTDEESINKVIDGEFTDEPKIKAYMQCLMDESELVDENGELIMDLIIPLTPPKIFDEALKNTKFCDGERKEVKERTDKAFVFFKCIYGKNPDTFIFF

In general, IC50 refers to the point on the concentration scale where inhibition reaches its midpoint. In the case of `C=C1CC/C=C(\C)CC[C@@H]2[C@@H]1CC2(C)C` [(−)-trans-caryophyllene], at recombinant MaltOBP1 [1], the IC50 was determined as 7.01 µM and the “binding affinity to MaltOBP1 (in words)” value is “high binding affinity”.

A word on the Ki: it is a dissociation constant, usually derived from enzyme kinetics or from competition with a known ligand. In the case of `C=C(C)[C@H]1CC=C(C)CC1` [(R)-(+)-limonene], on recombinant MaltOBP1 [1], the Ki amounted to 12.8 µM and the “binding affinity to MaltOBP1 (in words)” value is “high binding affinity”. On recombinant MaltOBP1 [1] (setting [3]), the IC50 turned out to be 21.7 µM. On to `C=C1[C@H]2CC[C@H](C2)C1(C)C` [comphene, Comphene], for which, on recombinant MaltOBP1 [1], the “binding affinity to MaltOBP1 (in words)” value is “no binding affinity”. For `C=C1CCC2CC1C2(C)C` (stereo not drawn) [β- Pinene], at recombinant MaltOBP1 [1], the IC50 is 39.3 µM and the “binding affinity to MaltOBP1 (in words)” value is “high binding affinity”. As for `CC1=CCC2C(C1)C2(C)C` (single isomer, unassigned; (+)) [(+)-3-carene], the “binding affinity to MaltOBP1 (in words)” value at recombinant MaltOBP1 [1] is “no binding affinity”. Take (+)-α-Pinene: on recombinant MaltOBP1 [1], the Ki was determined as 18.7 µM and the “binding affinity to MaltOBP1 (in words)” value is given as “high binding affinity”. Moreover, the IC50 on recombinant MaltOBP1 [1] (setting [3]) was determined as 31.5 µM. Consider `c1ccc(Nc2cccc3ccccc23)cc1` [1-NPN, 1-N-phenyl naphtylamine], for which, at recombinant MaltOBP1 [2], the Kd came out at 3.86 µM. Consider `CC1=CC(=O)[C@H]2C[C@@H]1C2(C)C` [(−) -verbenone], for which, on recombinant MaltOBP1 [1], the Ki was found to be 37.4 µM and the “binding affinity to MaltOBP1 (in words)” value is on record as “high binding affinity”. In addition, the IC50 at recombinant MaltOBP1 [1] (setting [3]) was determined as 63.1 µM. For `C=CC(=C)CCC=C(C)C` [myrcene], the “binding affinity to MaltOBP1 (in words)” value on recombinant MaltOBP1 [1] was “no binding affinity”.
